# From the supplement of paper PMC4862054
# Tested on: MDA-MB-436
# Test: normalised response (% of control), CellTiter-Glo; higher = more viable cells (100 = DMSO, 0 = benzethonium chloride kill control)
# Details: incubation time: 72 h
# In short: (§1)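 Normalised signals at single concentrations make up the values. They come from breast cancer cell lines seeded (20 µl suspension) into 384-well plates with compound at 5 concentrations in 10-fold steps over a compound-specific 10,000-fold range, incubated 72 h, and read for CellTox Green fluorescence then CellTiter-Glo luminescence. Each plate was normalised to 0.1 % DMSO (100) and a positive kill control (0).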
row,Structure (SMILES),normalised response [%]
1,C=CC(=O)N1CCC[C@@H](n2nc(-c3ccc(Oc4ccccc4)cc3)c3c(N)ncnc32)C1 [Ibrutinib] (0.1 nM),96.8
2,Nc1nc2[nH]cc(CCc3ccc(C(=O)N[C@@H](CCC(=O)O)C(=O)O)cc3)c2c(=O)[nH]1 [Pemetrexed] (1 nM),98.7
3,COc1cc2nccc(Oc3ccc(NC(=O)Nc4cc(C)on4)c(Cl)c3)c2cc1OC [Tivozanib] (1 nM),83.2
4,COc1cc2c(NC3CCN(C(C)C)CC3)nc(C3CCCCC3)nc2cc1OCCCN1CCCC1 [UNC0638] (1 nM),90
5,CNC(=O)c1cc(Oc2ccc(NC(=O)Nc3cc(C(C)(C)C)nn3-c3ccc4ncccc4c3)c(F)c2)ccn1 [Rebastinib] (0.1 nM),97.9
6,N#Cc1ccc(C(c2ccc(C#N)cc2)n2cncn2)cc1 [Letrozole] (1 nM),104
7,CC[C@H](Nc1ncnc2[nH]cnc12)c1nc2cccc(F)c2c(=O)n1-c1ccccc1 [GS-1101] (1 nM),92.5
8,O=C(O)C(=O)O.[NH-][C@@H]1CCCC[C@H]1[NH-].[Pt+2] [Oxaliplatin] (10 nM),104
9,C=CC(=O)Nc1cc2c(Nc3ccc(F)c(Cl)c3)ncnc2cc1OCCCN1CCOCC1 [Canertinib] (10 nM),99.2
10,CC(=O)Nc1cccc(-n2c(=O)n(C3CC3)c(=O)c3c(Nc4ccc(I)cc4F)n(C)c(=O)c(C)c32)c1 [Trametinib] (0.25 nM),104
11,C=CC(=O)N1CCC[C@@H](n2nc(-c3ccc(Oc4ccccc4)cc3)c3c(N)ncnc32)C1 [Ibrutinib] (1 nM),98.2
12,CCCCC(=O)OCC(=O)[C@]1(O)Cc2c(O)c3c(c(O)c2[C@@H](O[C@H]2C[C@H](NC(=O)C(F)(F)F)[C@H](O)[C@H](C)O2)C1)C(=O)c1c(OC)cccc1C3=O [Valrubicin] (0.5 nM),98.4
13,COc1cc2nccc(Oc3ccc(NC(=O)Nc4cc(C)on4)c(Cl)c3)c2cc1OC [Tivozanib] (10 nM),94.2
14,CCN(CC)CCCC(C)Nc1c2ccc(Cl)cc2nc2ccc(OC)cc12 (centres undefined) [Mepacrine] (5 nM),111
15,CCCS(=O)(=O)Nc1ccc(F)c(C(=O)c2c[nH]c3ncc(-c4ccc(Cl)cc4)cc23)c1F [Vemurafenib] (10 nM),88.7
16,CCCS(=O)(=O)Nc1ccc(F)c(C(=O)c2c[nH]c3ncc(-c4ccc(Cl)cc4)cc23)c1F [Vemurafenib] (1 nM),88
17,CC1=C(/C=C/C(C)=C/C=C/C(C)=C/C(=O)O)C(C)(C)CCC1 [Tretinoin] (10 nM),94.1
18,Cc1ccc(-c2cc(C(F)(F)F)nn2-c2ccc(S(N)(=O)=O)cc2)cc1 [Celecoxib] (1 nM),95.1
19,Oc1ncc(N(CCCl)CCCl)c(O)n1 [Uracil mustard] (1 nM),95.8
20,Nc1ccccc1NC(=O)c1ccc(CNC(=O)OCc2cccnc2)cc1 [Entinostat] (1 nM),102
21,C=CC(=O)Nc1cc2c(Nc3ccc(F)c(Cl)c3)ncnc2cc1OCCCN1CCOCC1 [Canertinib] (1 nM),94.5

# Tested on: MFM-223
# Test: as above
# Details: incubation time: 72 h
# In short: as §1
row,Structure (SMILES),normalised response [%]
1,C=CC(=O)N1CCC[C@@H](n2nc(-c3ccc(Oc4ccccc4)cc3)c3c(N)ncnc32)C1 [Ibrutinib] (0.1 nM),106
2,Nc1nc2[nH]cc(CCc3ccc(C(=O)N[C@@H](CCC(=O)O)C(=O)O)cc3)c2c(=O)[nH]1 [Pemetrexed] (1 nM),92.6
3,COc1cc2nccc(Oc3ccc(NC(=O)Nc4cc(C)on4)c(Cl)c3)c2cc1OC [Tivozanib] (1 nM),88.6
4,COc1cc2c(NC3CCN(C(C)C)CC3)nc(C3CCCCC3)nc2cc1OCCCN1CCCC1 [UNC0638] (1 nM),87.1
5,CNC(=O)c1cc(Oc2ccc(NC(=O)Nc3cc(C(C)(C)C)nn3-c3ccc4ncccc4c3)c(F)c2)ccn1 [Rebastinib] (0.1 nM),101
6,N#Cc1ccc(C(c2ccc(C#N)cc2)n2cncn2)cc1 [Letrozole] (1 nM),98.8
7,CC[C@H](Nc1ncnc2[nH]cnc12)c1nc2cccc(F)c2c(=O)n1-c1ccccc1 [GS-1101] (1 nM),85.4
8,O=C(O)C(=O)O.[NH-][C@@H]1CCCC[C@H]1[NH-].[Pt+2] [Oxaliplatin] (10 nM),92
9,C=CC(=O)Nc1cc2c(Nc3ccc(F)c(Cl)c3)ncnc2cc1OCCCN1CCOCC1 [Canertinib] (10 nM),103
10,CC(=O)Nc1cccc(-n2c(=O)n(C3CC3)c(=O)c3c(Nc4ccc(I)cc4F)n(C)c(=O)c(C)c32)c1 [Trametinib] (0.25 nM),109
11,C=CC(=O)N1CCC[C@@H](n2nc(-c3ccc(Oc4ccccc4)cc3)c3c(N)ncnc32)C1 [Ibrutinib] (1 nM),108
12,CCCCC(=O)OCC(=O)[C@]1(O)Cc2c(O)c3c(c(O)c2[C@@H](O[C@H]2C[C@H](NC(=O)C(F)(F)F)[C@H](O)[C@H](C)O2)C1)C(=O)c1c(OC)cccc1C3=O [Valrubicin] (0.5 nM),102
13,COc1cc2nccc(Oc3ccc(NC(=O)Nc4cc(C)on4)c(Cl)c3)c2cc1OC [Tivozanib] (10 nM),87.2
14,CCN(CC)CCCC(C)Nc1c2ccc(Cl)cc2nc2ccc(OC)cc12 (centres undefined) [Mepacrine] (5 nM),97.2
15,CCCS(=O)(=O)Nc1ccc(F)c(C(=O)c2c[nH]c3ncc(-c4ccc(Cl)cc4)cc23)c1F [Vemurafenib] (10 nM),89.8
16,CCCS(=O)(=O)Nc1ccc(F)c(C(=O)c2c[nH]c3ncc(-c4ccc(Cl)cc4)cc23)c1F [Vemurafenib] (1 nM),88
17,CC1=C(/C=C/C(C)=C/C=C/C(C)=C/C(=O)O)C(C)(C)CCC1 [Tretinoin] (10 nM),103
18,Cc1ccc(-c2cc(C(F)(F)F)nn2-c2ccc(S(N)(=O)=O)cc2)cc1 [Celecoxib] (1 nM),102
19,Oc1ncc(N(CCCl)CCCl)c(O)n1 [Uracil mustard] (1 nM),101
20,Nc1ccccc1NC(=O)c1ccc(CNC(=O)OCc2cccnc2)cc1 [Entinostat] (1 nM),97.2
21,C=CC(=O)Nc1cc2c(Nc3ccc(F)c(Cl)c3)ncnc2cc1OCCCN1CCOCC1 [Canertinib] (1 nM),105

# Tested on: HCC1143
# Test: as above
# Details: incubation time: 72 h
# In short: as §1
row,Structure (SMILES),normalised response [%]
1,C=CC(=O)N1CCC[C@@H](n2nc(-c3ccc(Oc4ccccc4)cc3)c3c(N)ncnc32)C1 [Ibrutinib] (0.1 nM),96.3
2,Nc1nc2[nH]cc(CCc3ccc(C(=O)N[C@@H](CCC(=O)O)C(=O)O)cc3)c2c(=O)[nH]1 [Pemetrexed] (1 nM),91.6
3,COc1cc2nccc(Oc3ccc(NC(=O)Nc4cc(C)on4)c(Cl)c3)c2cc1OC [Tivozanib] (1 nM),94.2
4,COc1cc2c(NC3CCN(C(C)C)CC3)nc(C3CCCCC3)nc2cc1OCCCN1CCCC1 [UNC0638] (1 nM),94.6
5,CNC(=O)c1cc(Oc2ccc(NC(=O)Nc3cc(C(C)(C)C)nn3-c3ccc4ncccc4c3)c(F)c2)ccn1 [Rebastinib] (0.1 nM),98.3
6,N#Cc1ccc(C(c2ccc(C#N)cc2)n2cncn2)cc1 [Letrozole] (1 nM),97.5
7,CC[C@H](Nc1ncnc2[nH]cnc12)c1nc2cccc(F)c2c(=O)n1-c1ccccc1 [GS-1101] (1 nM),89.9
